# Assay results from patent publication US9999222B2, “Herbicidal combination comprising azines” (BASF SE, priority 2014, dated 2018).
# Where “and” joins values, the source holds several entries; their conditions need not be identical. Equal entries are not always repeated. Where two headings read alike, the source gives them in different places.
# Legend:
# Assay in all cases: Greenhouse test, pre-emergence treatment
# ALOMY = assay type: in vivo, Alopecurus myosuroides; settings: pre-emergence
# Summary of the method: (§1)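 Seeds were sown in loamy sand with about 3.0% humus, and compounds in water were sprayed immediately after sowing, alone or as combinations formulated as 10% emulsion concentrates. Plants grew under hoods until rooted, at 10-25 °C or 20-35 °C by species, for 2 to 4 weeks. Damage was scored 0-100 (100 = no emergence or complete destruction), and Colby expected values were E=X+Y−(X·Y/100).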
# ECHCG = assay type: in vivo, Echinocloa crus-galli; settings: Echinochloa crus-galli, 480 h, read-out: observed % activity 20 DAT
# Summary of the method: as §1
# POLCO = assay type: in vivo, Polygonum convolvulus; settings: pre-emergence
# Summary of the method: as §1
# SETFA = assay type: in vivo, Setaria faberi
# Summary of the method: as §1
# VIOAR = assay type: in vivo, Viola arvensis; settings: use rate 500 g ai/ha, 20 DAT
# Summary of the method: as §1
# AVEFA = assay type: in vivo, Avena fatua; settings: pre-emergence
# Summary of the method: as §1
# BRADC = assay type: in vivo, Brachiaria decumbens; settings: Urochloa decumbens, pre-emergence, 480 h
# Summary of the method: as §1
# COMBE = assay type: in vivo, Commelina benghalensis; settings: Commelina benghalensis, 480 h, pre-emergence, read-out: observed % activity 20 DAT
# Summary of the method: as §1
# ELEIN = assay type: in vivo, Eleusine indica; settings: 500 g ai/ha
# Summary of the method: as §1
# EPHHL = assay type: in vivo, Euphorbia heterophylla; settings: Euphorbia heterophylla, pre-emergence, 480 h, pre-emergence, 1000 g ai/ha; read-out: observed % activity 20 DAT
# Summary of the method: as §1
# GALAP = assay type: in vivo, Galium aparine; settings: Galium aparine, pre-emergence, 480 h, 500 g ai/ha, 20 DAT; read-out: observed % activity
# Summary of the method: as §1
# GERPU = assay type: in vivo, Geranium pusillum; settings: Geranium pusillum, pre-emergence, 480 h, pre-emergence, read-out: observed % activity 20 DAT
# Summary of the method: as §1
# KCHSC = assay type: in vivo, Kochia scoparia; settings: Bassia scoparia, 480 h, pre-emergence, read-out: observed % activity 20 DAT
# Summary of the method: as §1
# LOLMU = assay type: in vivo, Lolium multiflorum; settings: Lolium multiflorum, pre-emergence, 480 h, pre-emergence, read-out: observed % activity 20 DAT
# Summary of the method: as §1
# PHACA = assay type: in vivo, Phalaris canariensis; settings: Phalaris canariensis, pre-emergence, 480 h, pre-emergence, read-out: observed % activity 20 DAT
# Summary of the method: as §1
compound,measurement,setting,value
"CCC(CC)Nc1c([N+](=O)[O-])cc(C)c(C)c1[N+](=O)[O-] [Pendimethalin, pendimethalin]",inhibition at 250 g/ha,"ALOMY; Alopecurus myosuroides, 480 h, 250 g ai/ha, 20 DAT, read-out: observed % activity",60%
same,inhibition at 500 g/ha,"ALOMY; Alopecurus myosuroides, 480 h, 500 g ai/ha, 20 DAT, read-out: observed % activity",85%
same,pest or weed control at 250 g/ha,"ALOMY; Alopecurus myosuroides, 480 h, 250 g ai/ha, read-out: observed % activity 20 DAT",45%
same,pest or weed control at 500 g/ha,"ALOMY; Alopecurus myosuroides, 480 h, 500 g ai/ha, read-out: observed % activity 20 DAT",65%
same,pest or weed control at 1000 g/ha,"ALOMY; Alopecurus myosuroides, 480 h, 1000 g ai/ha, read-out: observed % activity 20 DAT",80%
same,inhibition at 125 g/ha,"ALOMY; Alopecurus myosuroides, 480 h, use rate 125 g ai/ha, read-out: observed % activity 20 DAT",55%
same,pest or weed control at 250 g/ha,"ALOMY; Alopecurus myosuroides, 480 h, use rate 250 g ai/ha, 20 DAT, read-out: observed % activity 20 DAT",15%
same,pest or weed control at 1000 g/ha,"ALOMY; Alopecurus myosuroides, 480 h, use rate 1000 g ai/ha, 20 DAT, read-out: observed % activity 20 DAT",95%
same,inhibition at 1000 g/ha,"ALOMY; Alopecurus myosuroides, 480 h, use rate 1000 g ai/ha, read-out: observed % activity 20 DAT",95%
same,observed % activity 20 DAT,ALOMY; use rate 500 g ai/ha,65% and 90%
same,observed % activity 20 DAT,ALOMY; use rate 1000 g ai/ha,75%
same,inhibition at 125 g/ha,ECHCG; use rate 125 g ai/ha,95%
same,pest or weed control at 250 g/ha,"ECHCG; use rate 250 g ai/ha, 20 DAT",98%
same,inhibition at 250 g/ha,ECHCG; use rate 250 g ai/ha,98%
same,pest or weed control at 500 g/ha,"POLCO; Fallopia convolvulus, 480 h, use rate 500 g ai/ha, 20 DAT, read-out: observed % activity 20 DAT",60%
same,inhibition at 250 g/ha,"POLCO; Fallopia convolvulus, 480 h, 250 g ai/ha, 20 DAT, read-out: observed % activity",50%
same,inhibition at 500 g/ha,"POLCO; Fallopia convolvulus, 480 h, 500 g ai/ha, 20 DAT, read-out: observed % activity",60%
same,inhibition at 125 g/ha,"POLCO; Fallopia convolvulus, 480 h, use rate 125 g ai/ha, read-out: observed % activity 20 DAT",0%
same,inhibition at 500 g/ha,"POLCO; Fallopia convolvulus, 480 h, use rate 500 g ai/ha, read-out: observed % activity 20 DAT",60%
same,observed % activity 20 DAT,POLCO; use rate 500 g ai/ha,45%
same,inhibition at 125 g/ha,"SETFA; Setaria faberi, 480 h, use rate 125 g ai/ha, read-out: observed % activity 20 DAT",98%
same,inhibition at 500 g/ha,"SETFA; Setaria faberi, 480 h, use rate 500 g ai/ha, read-out: observed % activity 20 DAT",98%
same,observed % activity 20 DAT,"SETFA; use rate 500 g ai/ha, 20 DAT",98%
same,observed % activity 20 DAT,VIOAR,80%
same,inhibition at 500 g/ha,"AVEFA; Avena fatua, 480 h, 500 g ai/ha, 20 DAT, read-out: observed % activity",0%
same,observed % activity 20 DAT,AVEFA; 250 g ai/ha,0%
same,inhibition at 500 g/ha,"BRADC; 500 g ai/ha, 20 DAT, read-out: observed % activity",75%
same,pest or weed control at 250 g/ha,"BRADC; 250 g ai/ha, read-out: observed % activity 20 DAT",35%
same,pest or weed control at 500 g/ha,"BRADC; 500 g ai/ha, read-out: observed % activity 20 DAT",55%
same,pest or weed control at 500 g/ha,COMBE; 500 g ai/ha,10%
same,pest or weed control at 1000 g/ha,COMBE; 1000 g ai/ha,40%
same,observed % activity 20 DAT,ELEIN,100%
same,pest or weed control at 1000 g/ha,EPHHL,55%
same,inhibition at 500 g/ha,GALAP,30%
same,pest or weed control at 125 g/ha,"GERPU; use rate 125 g ai/ha, 20 DAT",90%
same,inhibition at 125 g/ha,GERPU; use rate 125 g ai/ha,70%
same,inhibition at 250 g/ha,GERPU; use rate 250 g ai/ha,90%
same,pest or weed control at 500 g/ha,"GERPU; use rate 500 g ai/ha, 20 DAT",70%
same,pest or weed control at 500 g/ha,"KCHSC; use rate 500 g ai/ha, 20 DAT",80%
same,inhibition at 125 g/ha,KCHSC; use rate 125 g ai/ha,60%
same,inhibition at 125 g/ha,LOLMU; use rate 125 g ai/ha,0%
same,inhibition at 250 g/ha,LOLMU; use rate 250 g ai/ha,0%
same,pest or weed control at 1000 g/ha,"LOLMU; use rate 1000 g ai/ha, 20 DAT",55%
same,inhibition at 1000 g/ha,LOLMU; use rate 1000 g ai/ha,55%
same,pest or weed control at 250 g/ha,PHACA; 250 g ai/ha,0%
same,pest or weed control at 500 g/ha,PHACA; 500 g ai/ha,45%
same,inhibition at 125 g/ha,PHACA; use rate 125 g ai/ha,35%
same,pest or weed control at 250 g/ha,"PHACA; use rate 250 g ai/ha, 20 DAT",55%
same,inhibition at 250 g/ha,PHACA; use rate 250 g ai/ha,55%
same,inhibition at 500 g/ha,PHACA; use rate 500 g ai/ha,65%
